Measured values reported in patent US8771973B2, “Methods for treating bleeding disorders using sulfated polysaccharides” (Baxter Healthcare S.A., priority 2004, dated 2014).

Key:
[1] = molecular target: T1, TFPI (Homo sapiens, UniProt P10646); assay: dPT assay, inhibition of TFPI activity in Hem-A plasma without preincubation; assay type: biochemical; conditions: no preincubation; for clotting time, dPT: Hem-A + TFPI, HemA + TFPI 183, alone 45 seconds
T1 construct: purchased American Diagnostica (Stamford, Conn.)
T1 sequence (P10646 29-304): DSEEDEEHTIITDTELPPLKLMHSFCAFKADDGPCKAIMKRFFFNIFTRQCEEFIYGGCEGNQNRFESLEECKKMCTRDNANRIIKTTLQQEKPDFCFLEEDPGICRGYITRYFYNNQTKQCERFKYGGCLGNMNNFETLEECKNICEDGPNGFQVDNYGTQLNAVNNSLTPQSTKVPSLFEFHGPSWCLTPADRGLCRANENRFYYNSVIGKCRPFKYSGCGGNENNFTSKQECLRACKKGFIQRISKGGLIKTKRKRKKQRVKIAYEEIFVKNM
Experimental: (§1) The dPT assay used was a modified standard clinical PT assay (Nordfang et al. (1991) Thromb Haemost 66:464-467; Welsch et al. (1991) Thrombosis Research 64: 213-222). SIMPLASTIN EXCEL thromboplastin reagent (Organon Teknika) was reconstituted with the manufacturer's diluent and further diluted 1:100 in 0.9% saline. The thromboplastin reagent, 25 mM CaCl2, and plasma samples were pre-warmed to 37° C. before initiating the assay. 100 μl of thawed plasma was aliquoted into microcentrifuge tubes. […] 100 μl of the diluted thromboplastin reagent and 100 μl of 25 mM CaCl2 were added to fibrin cups (Fisher) prewarmed to 37° C. 100 μl of plasma (normal or hemophilic) containing the test agent or saline control was added to the fibrin cups containing the thromboplastin reagent and CaCl2 to initiate clotting. The time for plasma clotting was measured with a BBL FIBROSYSTEM fibrometer.
Experiments were repeated without a preincubation of the sulfated polysaccharides with TFPI prior to exposure to plasma. To extend the stringency of the test for NASP inhibition of TFPI activity, TFPI was added to the plasma before the NASP was added.

[2] = molecular target: T1, TFPI; assay: dPT assay, inhibition of TFPI activity in Hem-B plasma, TFPI preincubated with NASP; assay type: biochemical; conditions: Hem-B + TFPI, plasma alone 46, + TFPI 101 seconds
Experimental: as §1
(§2) Inhibition of TFPI activity by NASPs was assessed in dPT clotting assays with normal or hemophilic plasma and added recombinant TFPI. Diluted recombinant TFPI was preincubated with NASPs for 5 minutes at room temperature before plasma was added. After addition of plasma, the mixture was incubated for an additional 25 minutes followed by dPT initiation.
The acceleration of plasma clotting by the NASPs in the presence of TFPI was also tested in Hem-B and normal plasma.

[3] = tested on: Factor VII-deficient plasma; assay: dPT assay, Factor VII-deficient plasma in absence of exogenous TFPI; assay type: biochemical, human; conditions: FVII-deficient plasma, no NASP + 0.1 nM FVIIa 173 seconds
Experimental: as §1
Regulation of clotting in Factor VII-deficient plasma was also evaluated in dPT assays. […] Addition of FVIIa to approximately 0.1 nM restored the clotting time to about 150 seconds (data not shown). Such a variation in clotting time shown in the dPT assay mimics some forms of human factor VII-deficiency. Titration of fucoidan and PPS into FVII-deficient plasma accelerated clotting times.

[4] = tested on: Hem-A plasma; assay: dPT assay, Hem-A plasma in absence of exogenous TFPI; assay type: biochemical, human; conditions: Hem-A, no exogenous TFPI, no NASP 69 seconds
Experimental: as §1
The ability of NASPs to accelerate clotting of factor-deficient plasma in the absence of TFPI supplementation was also tested in dPT assays. A procoagulant response, if observed, may be related to neutralization of endogenous TFPI activity, which is present in human plasma at approximately 100 ng/ml (Nordfang et al., supra), largely associated with lipoprotein or platelets (Broze et al. (1992) Semin. Hematol. 29:159-169; Broze et al. (2003) J. Thromb. Haemost. 1:1671-1675).
The ability of NASPs to accelerate clotting of Hem-A plasma in the absence of exogenous TFPI was tested. Fucoidan or PPS were titrated into Hem A plasma and dPT assays were performed. Additionally, the dose-response to factor VIIa was analyzed as a positive control for amplifying extrinsic pathway activation.

[5] = tested on: Hem-A plasma; assay: dPT assay, anti-coagulant activity of NASPs in Hem-A plasma; assay type: biochemical, human; conditions: for clotting time, dPT: Hem-A plasma without NASP 41.5 seconds; for concentration for 50% prolongation of clotting time, fold higher than heparin: dPT, Hem-A plasma
Experimental: as §1
Test compounds were diluted to 100 μM, 10 μM, 2 μM and 200 nM. For each test compound, 12.5 μl of a diluted solution containing the test compound was added to 237.5 μl of Hem-A plasma and incubated at room temperature. 100 μl of plasma containing the test compound was removed for dPT assays of plasma clotting time as described in Example 2.

[6] = molecular target: T1, TFPI; assay: dPT assay, inhibition of TFPI activity in Hem-A plasma, TFPI preincubated with NASP; assay type: biochemical; conditions: Hem-A + TFPI, preincubation, plasma alone 44, + TFPI 151 seconds
Experimental: as §1, §2

Substance | clotting time, dPT ([1]; 0.8 nM) | clotting time, dPT ([1]; 4 nM) | clotting time, dPT ([1]; 20 nM) | clotting time, dPT ([1]; 100 nM) | clotting time, dPT ([1]; 500 nM) | clotting time, dPT ([2]; 0.16 nM) | clotting time, dPT ([2]; 0.8 nM) | clotting time, dPT ([2]; 4 nM) | clotting time, dPT ([2]; 20 nM) | clotting time, dPT ([2]; 100 nM) | clotting time, dPT ([2]; 500 nM) | clotting time, dPT ([3]; 0.8 nM) | clotting time, dPT ([3]; 4 nM) | clotting time, dPT ([3]; 20 nM) | clotting time, dPT ([3]; 100 nM) | clotting time, dPT ([3]; 500 nM) | clotting time, dPT ([4]; 0.16 nM) | clotting time, dPT ([4]; 0.8 nM) | clotting time, dPT ([4]; 4 nM) | clotting time, dPT ([4]; 20 nM) | other results
Fucoidan | 210 s | 78 s | 59 s | 54 s | 90 s | 108 s | 95 s | 80 s | 54 s | 50 s | 60 s | 168 s | 147 s | 120 s | 74 s | 111 s | 70 s | 68 s | 63 s | ~55 s | concentration window for significant clotting acceleration ([1]; Hem A plasma + TFPI): greater than 100 fold; clotting time, dPT ([4]; 100 nM): 56 s; clotting time, dPT ([5]; 10 nM): 39 s; clotting time, dPT ([5]; 100 nM): 38 s; clotting time, dPT ([5]; 500 nM): 60 s; concentration for 50% prolongation of clotting time, fold higher than heparin [5]: approximately 10 fold; clotting time, dPT ([6]; 0.16 nM): 130 s; clotting time, dPT ([6]; 0.8 nM): 108 s; clotting time, dPT ([6]; 4 nM): 72 s; clotting time, dPT ([6]; 20 nM): 54 s; clotting time, dPT ([6]; 100 nM): 46 s; clotting time, dPT ([6]; 500 nM): 75 s
Pentosan Polysulphate Sodium [PPS] | 192 s | 156 s | 81 s | 76 s | 73 s | 106 s | 90 s | 82 s | 65 s | 52 s | 56 s | 198 s | 181 s | 159 s | 142 s | 113 s | 69 s | 68 s | 66 s | 62 s | clotting time, dPT ([4]; 100 nM): 60 s; clotting time, dPT ([5]; 10 nM): 39 s; clotting time, dPT ([5]; 100 nM): 37 s; clotting time, dPT ([5]; 500 nM): 40 s; clotting time, dPT ([5]; 5000 nM): 70 s; concentration for 50% prolongation of clotting time, fold higher than heparin [5]: ~100 fold; clotting time, dPT ([6]; 0.16 nM): 158 s; clotting time, dPT ([6]; 0.8 nM): 111 s; clotting time, dPT ([6]; 4 nM): 91 s; clotting time, dPT ([6]; 20 nM): 55 s; clotting time, dPT ([6]; 100 nM): 57 s; clotting time, dPT ([6]; 500 nM): 74 s
